Kd and IC50 data for 5 compounds are collected here from publication doi:10.1101/2025.03.19.644003v1 (biorxiv, 2025).

The structures appear in SMILES notation.

Assay [1] deals with VHL/EloB/EloC (VBC) (Homo sapiens, UniProt P40337). As to the kind of experiment: SPR, immobilised His-tagged VBC. It is filed as binding. For orientation: SPR reads the build-up and loss of mass on a sensor chip optically.
In assay [2] the target is VHL:GEMIN3aa41-268 (VBC with purified GEMIN3aa41-268) (Homo sapiens, UniProt P40337+Q9UHI6). As to the kind of experiment: SPR, immobilised GEMIN3aa41-268, pre-formed VBC:compound complex as analyte. In kind it is binding.
Chain of VHL:GEMIN3aa41-268 (VBC with purified GEMIN3aa41-268) (P40337 whole entry, the tested form may be a part): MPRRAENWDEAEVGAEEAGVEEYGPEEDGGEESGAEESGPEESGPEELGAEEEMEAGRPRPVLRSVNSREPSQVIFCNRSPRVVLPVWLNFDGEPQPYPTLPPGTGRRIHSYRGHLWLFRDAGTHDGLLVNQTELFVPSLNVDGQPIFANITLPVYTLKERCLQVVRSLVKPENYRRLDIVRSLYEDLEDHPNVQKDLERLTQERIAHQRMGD
Chain of VHL:GEMIN3aa41-268 (VBC with purified GEMIN3aa41-268) (Q9UHI6 41-268): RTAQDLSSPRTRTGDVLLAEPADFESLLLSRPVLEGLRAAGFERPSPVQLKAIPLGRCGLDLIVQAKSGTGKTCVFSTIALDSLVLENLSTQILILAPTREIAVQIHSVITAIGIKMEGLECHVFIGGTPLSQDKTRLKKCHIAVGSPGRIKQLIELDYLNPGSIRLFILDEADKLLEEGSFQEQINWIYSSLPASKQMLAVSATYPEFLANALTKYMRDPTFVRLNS
Chain of VHL:GEMIN3aa41-268 (VBC with purified GEMIN3aa41-268) (Q15369 whole entry, further chain, the tested form may be a part): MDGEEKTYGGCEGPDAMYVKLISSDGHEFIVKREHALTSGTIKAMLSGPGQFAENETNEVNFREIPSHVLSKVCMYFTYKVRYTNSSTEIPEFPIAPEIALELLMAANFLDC
Chain of VHL:GEMIN3aa41-268 (VBC with purified GEMIN3aa41-268) (Q15370 whole entry, further chain, the tested form may be a part): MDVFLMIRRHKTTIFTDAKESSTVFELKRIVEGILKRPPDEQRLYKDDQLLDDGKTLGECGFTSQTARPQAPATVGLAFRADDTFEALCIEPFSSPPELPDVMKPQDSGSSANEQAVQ
The target in assay [3] is NanoLuc-VHL (Homo sapiens, UniProt P40337). As to the kind of experiment: NanoBRET tracer displacement, live HEK293T cells. It is filed as cell-based.
Chain of NanoLuc-VHL (P40337 whole entry): as the sequence (P40337 whole entry, the tested form may be a part) above

Chain of VHL/EloB/EloC (VBC) (Q15369 whole entry, the tested form may be a part): as the sequence (Q15369 whole entry, further chain, the tested form may be a part) above
Chain of VHL/EloB/EloC (VBC) (Q15370 whole entry, further chain, the tested form may be a part): as the sequence (Q15370 whole entry, further chain, the tested form may be a part) above
Chain of VHL/EloB/EloC (VBC) (P40337 whole entry, the tested form may be a part): as the sequence (P40337 whole entry, the tested form may be a part) above

The term Kd denotes the concentration at which binding is half-saturated. The low end stands for higher affinity, the high end for lower affinity. For orientation: IC50 means the midpoint of a concentration-inhibition curve. Read a low IC50 as greater potency. On to `CC(C)(C)[C@H](NC(=O)c1cnn2c1OCCC2)C(=O)N1C[C@H](O)C[C@H]1C(=O)NCc1ccc(-c2ccc(Cl)cc2Cl)cc1` [compound 1, N-((S)-1-((2S,4R)-2-(((2’,4’-dichloro-[1,1’-biphenyl]-4-yl)methyl)carbamoyl)-4-hydroxypyrrolidin-1-yl)-3,3-dimethyl-1-oxobutan-2-yl)-6,7-dihydro-5H-pyrazolo[5,1-b] [1,3] oxazine-3-carboxamide], for which the dissociation constant (Kd) came out at 217 nM in assay [1] and 69 nM in assay [2]. The compound also displayed an IC50 in assay [3] of 870 nM.
In turn, `CC(C)(C)[C@H](NC(=O)c1cnn2c1OCCC2)C(=O)N1C[C@H](O)C[C@H]1C(=O)NCc1ccc(-c2ccccc2)cc1` [compound 6, N-((S)-1-((2S,4R)-2-(([1,1’-biphenyl]-4-ylmethyl)carbamoyl)-4-hydroxypyrrolidin-1-yl)-3,3-dimethyl-1-oxobutan-2-yl)-6,7-dihydro-5H-pyrazolo[5,1-b][1,3]oxazine-3-carboxamide] had a dissociation constant (Kd) in assay [1] of 170 nM.
As for `CC(C)(C)[C@H](NC(=O)c1cnn2c1CCCC2)C(=O)N1C[C@H](O)C[C@H]1C(=O)NCc1ccc(-c2ccc(Cl)cc2Cl)cc1` [compound 3, N-((S)-1-((2S,4R)-2-(((2’,4’-dichloro-[1,1’-biphenyl]-4-yl)methyl)carbamoyl)-4-hydroxypyrrolidin-1-yl)-3,3-dimethyl-1-oxobutan-2-yl)-4,5,6,7-tetrahydropyrazolo[1,5-a]pyridine-3-carboxamide], the equilibrium dissociation constant (Kd) in assay [1] was found to be 557 nM; in assay [2] it was 73 nM.
`CC(C)(C)[C@H](NC(=O)c1cnn2c1OCCC2)C(=O)N1C[C@H](O)C[C@H]1C(=O)NCc1ccc(-c2ccccc2Cl)cc1` [compound 5, N-((S)-1-((2S,4R)-2-(((2’-chloro-[1,1’-biphenyl]-4-yl)methyl)carbamoyl)-4-hydroxypyrrolidin-1-yl)-3,3-dimethyl-1-oxobutan-2-yl)-6,7-dihydro-5H-pyrazolo[5,1-b][1,3]oxazine-3-carboxamide] displayed a Kd in assay [1] of 74.3 nM.
Turning to `CC(C)(C)[C@H](NC(=O)c1cnn2c1OCCC2)C(=O)N1C[C@H](O)C[C@H]1C(=O)NCc1ccc(-c2ccc(Cl)cc2)cc1` [compound 4, N-((S)-1-((2S,4R)-2-(((4’-chloro-[1,1’-biphenyl]-4-yl)methyl)carbamoyl)-4-hydroxypyrrolidin-1-yl)-3,3-dimethyl-1-oxobutan-2-yl)-6,7-dihydro-5H-pyrazolo[5,1-b][1,3]oxazine-3-carboxamide], the results for the Kd in assay [1] and in assay [2] were 200 nM and 487 nM, respectively.
